Reference: US20240309015A1, “Methods for the Treatment of Fibrotic Disease” (SHY Therapeutics, LLC, priority 2021, published 2024)

Columns and labels:
Smad2/3 phosphorylation = assay: Phospho-Smad2/3 Inhibition Assay in PANC-1; assay type: cell-based; conditions: Homo sapiens; 10 μM compound, 3 h; TGF-b1 stimulated PANC-1; western blot; read-out: % inh of Smad2/3 phosphorylation in PANC-1
Procedure, shortened: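 Serum-starved cells (0.5% FBS overnight) pretreated 3 h at 37 °C with compound at 10 μM or serial dilutions for IC50, in 0.3% DMSO. TGF-b1 10 ng/ml stimulation: 1 h for Panc-1 (human), 20 min for C2C12 (mouse). Phospho-Smad2 (Ser465/467) and phospho-Smad3 (Ser423/425) measured by western blot of lysates.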

TNFα = assay: Mouse TNF Alpha Quantification Assay (LPS-stimulated RAW 264.7); assay type: cell-based; set-up: dose or concentration left out as unconfirmed; conditions: RAW264.7, ELISA, read-out: TNFα: % inh.
KRas G12D mutant = assay: Ras GTP Binding Domain Inhibition Assay, KRas G12D mutant; conditions: at 20 μM; for KRas G12D mutant + SOS: % inh.: with SOS; for KRas G12D mutant: % inh.: without SOS
Procedure, shortened: (§1)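 Assay steps: protein on Ni-coated plate overnight at 4° C, compound for 3 h at room temperature (20 μM single point or serial dilution for IC50), then 100 nM dye-labelled GTP for 45 min. Washed wells read by fluorescence; Sos was added in the last hour in some runs.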

IL-6 = assay: Mouse IL6 Quantification Assay (LPS-stimulated RAW 264.7); assay type: cell-based; set-up: dose or concentration left out as unconfirmed; conditions: RAW264.7, ELISA, read-out: IL-6: % inh.
KRas G12C mutant = assay: Ras GTP Binding Domain Inhibition Assay, KRas G12C mutant; conditions: at 20 μM; for KRas G12C mutant + SOS: % inh.: with SOS; for KRas G12C mutant: % inh.: without SOS
Procedure, shortened: as §1

KRas wild type = assay: Ras GTP Binding Domain Inhibition Assay, KRas wild type; conditions: at 20 μM; for KRas wild type + SOS: % inh.: with SOS; for KRas wild type: % inh.: without SOS
Procedure, shortened: as §1

Rho-A = assay: Ras GTP Binding Domain Inhibition Assay, Rho-A; conditions: at 20 μM; without SOS
Procedure, shortened: as §1

Row | SMILES | inhibition at 10 µM (Smad2/3 phosphorylation) | inhibition (TNFα) | KRas G12D mutant + SOS: % inh. (KRas G12D mutant; Table 7) | KRas G12D mutant + SOS: % inh. (KRas G12D mutant; Table 8) | KRas G12D mutant: % inh. (KRas G12D mutant; Table 7) | KRas G12D mutant: % inh. (KRas G12D mutant; Table 8) | inhibition (IL-6) | KRas G12C mutant + SOS: % inh. (KRas G12C mutant) | KRas G12C mutant: % inh. (KRas G12C mutant) | KRas wild type + SOS: % inh. (KRas wild type) | KRas wild type: % inh. (KRas wild type) | Rho-A: % inh. (Rho-A)
1 | COCCn1c(-c2nccn2C)nc2sc(-c3ccn(C(C)C)n3)c(C)c2c1=O [Compound 29, 6-(1-Isopropyl-1H-pyrazol-3-yl)-3-(2-methoxyethyl)-5-methyl-2-(1-methyl-1H-imidazol-2-yl)thieno[2,3-d]pyrimidin-4(3H)-one] | 0% | 76 to 100% | C (C = 46-75% inhibition) | C (C = 46-75% inhibition) | C (C = 46-75% inhibition) | C (C = 46-75% inhibition) | 76 to 100% | D (D = 76-100% inhibition) | C (C = 46-75% inhibition) | D (D = 76-100% inhibition) | D (D = 76-100% inhibition) | D (D = 76-100% inhibition)
2 | COCCOc1nc(-c2nccn2C)nc2sc(-c3ccn(C(C)C)n3)c(C)c12 [Compound 30, 6-(1-Isopropyl-1H-pyrazol-3-yl)-4-(2-methoxyethoxy)-5-methyl-2-(1-methyl-1H-imidazol-2-yl)thieno[2,3-d]pyrimidine] | 0% | 0% | 0 (0 = 0% inhibition) | 0 (0 = 0% inhibition) | 0 (0 = 0% inhibition) | 0 (0 = 0% inhibition) | 0% | 0 (0 = 0% inhibition) | A (A = 1-25% inhibition) | 0 (0 = 0% inhibition) | A (A = 1-25% inhibition) | 0 (0 = 0% inhibition)
3 | COCCCn1c(-c2nccn2C)nc2sc(-c3ccn(C(C)C)n3)c(C)c2c1=O [Compound 31, 6-(1-Isopropyl-1H-pyrazol-3-yl)-3-(3-methoxypropyl)-5-methyl-2-(1-methyl-1H-imidazol-2-yl)thieno[2,3-d]pyrimidin-4(3H)-one] | 0% | 0% | 0 (0 = 0% inhibition) | 0 (0 = 0% inhibition) | 0 (0 = 0% inhibition) | 0 (0 = 0% inhibition) | 46 to 75% | 0 (0 = 0% inhibition) | 0 (0 = 0% inhibition) | A (A = 1-25% inhibition) | A (A = 1-25% inhibition) | 0 (0 = 0% inhibition)
4 | COCCCOc1nc(-c2nccn2C)nc2sc(-c3ccn(C(C)C)n3)c(C)c12 [Compound 32, 6-(1-Isopropyl-1H-pyrazol-3-yl)-4-(3-methoxypropoxy)-5-methyl-2-(1-methyl-1H-imidazol-2-yl)thieno[2,3-d]pyrimidine] | 0% | 76 to 100% | C (C = 46-75% inhibition) | C (C = 46-75% inhibition) | C (C = 46-75% inhibition) | C (C = 46-75% inhibition) | 76 to 100% | C (C = 46-75% inhibition) | C (C = 46-75% inhibition) | D (D = 76-100% inhibition) | D (D = 76-100% inhibition) | D (D = 76-100% inhibition)
5 | COCCCCn1c(-c2nccn2C)nc2sc(-c3ccn(C(C)C)n3)c(C)c2c1=O [Compound 33, 6-(1-Isopropyl-1H-pyrazol-3-yl)-3-(4-methoxybutyl)-5-methyl-2-(1-methyl-1H-imidazol-2-yl)thieno[2,3-d]pyrimidin-4(3H)-one] | 0% | 0% | 0 (0 = 0% inhibition) | 0 (0 = 0% inhibition) | 0 (0 = 0% inhibition) | 0 (0 = 0% inhibition) | 46 to 75% | A (A = 1-25% inhibition) | 0 (0 = 0% inhibition) | A (A = 1-25% inhibition) | 0 (0 = 0% inhibition) | 0 (0 = 0% inhibition)
6 | COCCCCOc1nc(-c2nccn2C)nc2sc(-c3ccn(C(C)C)n3)c(C)c12 [Compound 34, 6-(1-Isopropyl-1H-pyrazol-3-yl)-4-(4-methoxybutoxy)-5-methyl-2-(1-methyl-1H-imidazol-2-yl)thieno[2,3-d]pyrimidine] | 0% | 0% | 0 (0 = 0% inhibition) | 0 (0 = 0% inhibition) | A (A = 1-25% inhibition) | A (A = 1-25% inhibition) | 76 to 100% | A (A = 1-25% inhibition) | 0 (0 = 0% inhibition) | 0 (0 = 0% inhibition) | A (A = 1-25% inhibition) | 0 (0 = 0% inhibition)
7 | COc1cc(Cn2c(-c3nccn3C)nc3sc(-c4ccn(C(C)C)n4)c(C)c3c2=O)ncn1 [Compound 35, 6-(1-Isopropyl-1H-pyrazol-3-yl)-3-((6-methoxypyrimidin-4-yl)methyl)-5-methyl-2-(1-methyl-1H-imidazol-2-yl)thieno[2,3-d]pyrimidin-4(3H)-one] | 0% | 1 to 25% | 0 (0 = 0% inhibition) | 0 (0 = 0% inhibition) | A (A = 1-25% inhibition) | A (A = 1-25% inhibition) | 1 to 25% | A (A = 1-25% inhibition) | 0 (0 = 0% inhibition) | A (A = 1-25% inhibition) | A (A = 1-25% inhibition) | 0 (0 = 0% inhibition)
8 | COCCCn1c(-c2nccn2C)nc2sc(-c3ccn(C(C)C)n3)c(-c3ccccc3)c2c1=O [Compound 36, 6-(1-Isopropyl-1H-pyrazol-3-yl)-3-(3-methoxypropyl)-2-(1-methyl-1H-imidazol-2-yl)-5-phenylthieno[2,3-d]pyrimidin-4(3H)-one] | 0% | 0% | 0 (0 = 0% inhibition) | 0 (0 = 0% inhibition) | 0 (0 = 0% inhibition) | 0 (0 = 0% inhibition) | 46 to 75% | A (A = 1-25% inhibition) | 0 (0 = 0% inhibition) | A (A = 1-25% inhibition) | A (A = 1-25% inhibition) | 0 (0 = 0% inhibition)
9 | COCCCOc1nc(-c2nccn2C)nc2sc(-c3ccn(C(C)C)n3)c(-c3ccccc3)c12 [Compound 37, 6-(1-Isopropyl-1H-pyrazol-3-yl)-4-(3-methoxypropoxy)-2-(1-methyl-1H-imidazol-2-yl)-5-phenylthieno[2,3-d]pyrimidine] | 0% | 0% | 0 (0 = 0% inhibition) | 0 (0 = 0% inhibition) | 0 (0 = 0% inhibition) | 0 (0 = 0% inhibition) | 76 to 100% | 0 (0 = 0% inhibition) | 0 (0 = 0% inhibition) | A (A = 1-25% inhibition) | 0 (0 = 0% inhibition) | 0 (0 = 0% inhibition)
